Reference: patent publication US20250214978A1, “AT2R AGONIST” (WUHAN HUMANWELL INNOVATIVE DRUG RESEARCH AND DEVELOPMENT …, priority 2022, published 2025)
Like-named read-outs stand apart in the source and are kept apart here.

Assays:
AT2R = AT2R (Homo sapiens (Human), UniProt P50052); assay: Binding assay of compounds to AT2R (Tag-lite HTRF ligand binding kit); details: 1 hour incubation at room temperature
Summary of the method: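 Tag-lite HTRF competition binding on labeled cells: compounds in 10-point 5-fold dilution series (duplicates) incubated with cells and red fluorescent labeled ligand 1 h at room temperature in 1×TLB. 665/615 nm ratio read; IC50 fitted from ratio versus log compound concentration.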

[1] = Free plasma protein binding (PPB) assay, equilibrium dialysis; format: in vitro ADME; details: dialysis 6 hours at 37° C.
Description: The dried dialysis membrane was soaked in ultrapure water for 1 hour, then soaked in 20% ethanol for 20 minutes, and then rinsed with ultrapure water for 2 to 3 times. Finally, the dried dialysis membrane was soaked in ultrapure water for 20 minutes for later use. The frozen plasma was thawed in a water bath at 37° C. for about 20 minutes. pH value of the plasma was measured after thawing was complete, and was adjusted to 7.4 with 1% phosphoric acid solution or 0.1M sodium hydroxide solution. […] The pretreated dialysis membrane was assembled into the dialysis plate according to product instructions, and 100 μL of receiving solution (100 mM phosphate buffer solution plus 0.002% Tween 80) was added to one side of the permeable membrane in each dialysis well. 20 μL of each of the final solution of the test compound and the final solution of the control compound were taken in a 96-well sample plate, two duplicate samples were made, and T0 sample was obtained, which was stored in a −20° C. refrigerator. Another 100 μL of each of the above-mentioned final solutions were taken to the other side of the membrane in the dialysis device, two duplicate samples were made, and incubated at 37° C. with constant shaking for 6 hours. After 6 hours of incubation, 20 μL of each of the dialyzed receiving solution and the administered plasma were taken, two duplicate samples were made, and sample A and sample B were obtained. Corresponding blank plasma or receiving solution of corresponding volume were added to sample B and sample A, respectively, allowing the volume ratio of plasma to buffer in each sample well to be 1:1. 300 μL of sample-containing internal standard acetonitrile solution was added to all the sample wells. The mixture was mixed well, and centrifuged at 5,500×g for 10 minutes. 150 μL of corresponding ultrapure water was added to the corresponding sample wells of the 96-well sample plate. 150 μL of the supernatant was taken into the sample wells, and mixed well. Then, LC/MS/MS analysis was performed. The calculation formula of fu is: […]
where: CR: peak area ratio measured in the receiving chamber well CD: peak area ratio measured in the supply chamber well.

[2] = Liver microsome stability assay; format: in vitro ADME; details: Human liver microsomes, NADPH, 37° C.; read-out: T1/2 (min) Human
Description: The human liver microsome stability assay was performed by co-incubating the compound with human liver microsomes in vitro. The test compounds were first prepared as 10 mM stock solutions in DMSO solvent, and then diluted to 0.5 mM with acetonitrile. Human liver microsomes (Corning) were diluted with PBS to prepare a microsome/buffer solution, and this solution was used to dilute 0.5 mM of the compound to prepare a working solution. In the working solution, a concentration of the compound was 1.5 μM and a concentration of the human liver microsome was 0.75 mg/ml. A deep-well plate was taken, 30 μL of working solution was added to each well of the plate, and then 15 μL of pre-heated NADPH solution (6 mM) was added to start the reaction. The mixture was incubated at 37° C. 135 μL of acetonitrile was added to the corresponding wells to stop the reaction at 0 minute, 5 minutes, 15 minutes, 30 minute, and 45 minutes of incubation. Subsequent to the stop of the reaction by means of acetonitrile at the last time point of 45 minute, the plate was vortexed for 10 minutes (600 rpm/min) and then centrifuged for 15 minutes. […] The peak area ratios of the compound at 5 minutes, 15 minutes, 30 minutes, and 45 minutes were compared with the peak area ratio at 0 minute, and the remaining percentage of the compound at each time point was calculated. T1/2 was calculated using Graphpad8 software.

[3] = Liver microsome stability assay; format: in vitro ADME; details: Mouse liver microsomes; read-out: T1/2 (min) Mouse
[4] = Liver microsome stability assay; format: in vitro ADME; details: dog; Canine liver microsomes; read-out: T1/2 (min) Canine

Sequence of AT2R (P50052 whole entry): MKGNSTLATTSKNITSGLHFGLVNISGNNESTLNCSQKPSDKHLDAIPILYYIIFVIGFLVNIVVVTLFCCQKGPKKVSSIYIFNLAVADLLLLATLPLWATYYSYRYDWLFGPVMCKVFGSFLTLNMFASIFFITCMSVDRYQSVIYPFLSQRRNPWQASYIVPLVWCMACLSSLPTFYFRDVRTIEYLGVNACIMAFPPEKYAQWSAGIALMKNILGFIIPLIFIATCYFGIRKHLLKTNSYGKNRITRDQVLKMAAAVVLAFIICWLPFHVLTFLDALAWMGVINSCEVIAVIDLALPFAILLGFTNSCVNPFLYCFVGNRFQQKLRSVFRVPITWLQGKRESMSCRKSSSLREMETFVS

IC50 (AT2R): 4.32 nM | fraction unbound at 6 h, 1 μM ([1]; dog, pH 7.4, Canine plasma, read-out: fu % Canine): 0.0141 | fraction unbound at 6 h, 1 μM ([1]; pH 7.4, Human plasma, read-out: fu % Human): 0.008 | fraction unbound at 6 h, 1 μM ([1]; pH 7.4, Mouse plasma, read-out: fu % Mouse): 0.0093 | fraction unbound at 6 h, 1 μM ([1]; pH 7.4, Rat plasma, read-out: fu % Rat): 0.0289 | half-life at 1 μM [2]: 45 min | half-life at 1 μM [3]: 61.9 min | half-life at 1 μM [4]: 122 min
SMILES: COC(=O)NS(=O)(=O)c1sc(CC(C)C)c(C)c1-c1ccc(Cn2ccnc2Cl)cc1 [Compound I-34, Methyl ((3-(4-((2-chloro-1H-imidazol-1-yl)methyl)phenyl)-5-isobutyl-4-methylthiophen-2-yl)sulfonyl)carbamate]
